Experimental data published in patent publication US20090311217A1, “3-SUBSTITUTED-1H-INDOLE COMPOUNDS, THEIR USE AS MTOR KINASE AND PI3 KINASE INHIBITORS, AND THEIR SYNTHESES” (priority 2008, published 2009).
Where two headings read alike, the source gives them in different places.

Key:
Type in all cases: biochemical
PI3K-gamma = PI3K-gamma (Homo sapiens, UniProt P48736); test: PI3K-gamma fluorescence polarization assay; conditions: PI3Kγ Avg. IC50
Procedure, shortened: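 Enzyme 5 ng; substrate diC8-PI(4,5)P2 2.5 μM; ATP 25 μM; 5 mM HEPES pH 7, 2.5 mM MgCl2; DMSO ≤2%; 1 h, 25° C. Quench 10 mM EDTA. Detect with GRP1 PH domain 100 nM + TMR-IP4 probe 5 nM by polarization.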

PI3K-alpha = PI3K-alpha (Homo sapiens, UniProt P42336); test: PI3K-alpha fluorescence polarization assay
human TOR = target: T1, human TOR (Homo sapiens, UniProt P42345); test: mTOR enzyme assay (DELFIA, His6-S6K substrate); conditions: read-out: mTOR Kinase Avg. IC50
T1 construct: FLAG

PI3K-delta = PI3K-delta (Homo sapiens, UniProt O00329); test: PI3K-delta fluorescence polarization assay
PI3K-beta = PI3K-beta (Homo sapiens, UniProt P42338); test: PI3K-beta fluorescence polarization assay; conditions: read-out: PI3Kβ Avg. IC50
Method: PI3K-Alpha, PI3K-Beta, PI3K-Gamma, and PI3K-delta Fluorescence Polarization Assay Protocols
PI3-Kinase reactions were performed in 5 mM HEPES, pH 7, 2.5 mM MgCl2, and 25 μM ATP, with diC8-PI(4,5)P2 (Echelon, Salt Lake City Utah) as substrate. Nunc 384-well black polypropylene fluorescent plates were used for PI3K assays. Reactions were quenched by the addition of EDTA to a final concentration of 10 mM. Final reaction volumes were 10 μl. For evaluation of PI3K inhibitors, 5 ng of enzyme (PI3K-alpha, beta, gamma, or delta) and 2.5 μM of substrate was used per […] reaction volume, and inhibitor concentrations ranged from 100 μM to 20 μM; the final level of DMSO in reactions never exceeded 2%. Reactions were allowed to proceed for one hour at 25° C. After 1 hour, GST-tagged GRP1 (general receptor for phosphoinositides) PH domain fusion protein was added to a final concentration of 100 nM, and BODIPY-TMRI(1,3,4,5)P4 (Echelon) was also added to a final concentration of 5 nM. Final sample volumes were 25 μl with a final DMSO concentration of 0.8%. Assay Plates were read on Perkin-Elmer Envision plate readers with appropriate filters for Tamra [BODIPY-TMRI(1,3,4,5)P4]. Data obtained were used to calculate enzymatic activity and enzyme inhibition by inhibitor compounds.

Sequence of PI3K-alpha (P42336 whole entry, species assumed): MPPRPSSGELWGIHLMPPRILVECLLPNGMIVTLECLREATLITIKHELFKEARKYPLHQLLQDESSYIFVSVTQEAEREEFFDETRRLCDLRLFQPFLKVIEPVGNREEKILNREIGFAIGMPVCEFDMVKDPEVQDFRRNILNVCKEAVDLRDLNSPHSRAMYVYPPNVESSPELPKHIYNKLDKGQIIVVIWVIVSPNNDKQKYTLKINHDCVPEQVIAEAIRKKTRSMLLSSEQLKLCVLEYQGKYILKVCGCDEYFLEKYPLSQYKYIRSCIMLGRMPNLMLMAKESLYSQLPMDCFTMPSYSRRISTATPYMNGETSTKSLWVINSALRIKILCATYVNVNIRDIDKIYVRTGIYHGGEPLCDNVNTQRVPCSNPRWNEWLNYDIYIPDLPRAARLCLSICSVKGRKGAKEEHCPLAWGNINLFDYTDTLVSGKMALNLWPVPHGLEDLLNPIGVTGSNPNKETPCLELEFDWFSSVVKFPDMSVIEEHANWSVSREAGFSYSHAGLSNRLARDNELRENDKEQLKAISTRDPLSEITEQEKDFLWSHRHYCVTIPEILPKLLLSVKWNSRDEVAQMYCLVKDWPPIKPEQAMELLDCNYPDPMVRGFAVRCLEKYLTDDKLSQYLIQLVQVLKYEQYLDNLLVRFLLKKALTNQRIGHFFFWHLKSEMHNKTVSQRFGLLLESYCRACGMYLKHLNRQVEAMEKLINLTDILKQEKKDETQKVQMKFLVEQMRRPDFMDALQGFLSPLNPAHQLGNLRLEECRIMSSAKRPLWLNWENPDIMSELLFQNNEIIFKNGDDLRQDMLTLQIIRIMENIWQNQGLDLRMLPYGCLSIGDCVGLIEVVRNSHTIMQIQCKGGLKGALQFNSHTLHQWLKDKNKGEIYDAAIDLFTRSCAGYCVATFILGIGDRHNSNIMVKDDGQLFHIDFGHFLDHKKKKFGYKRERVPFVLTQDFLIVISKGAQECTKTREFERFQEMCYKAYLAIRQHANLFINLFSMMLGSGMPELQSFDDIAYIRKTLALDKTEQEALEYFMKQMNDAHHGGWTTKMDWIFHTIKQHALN
Sequence of PI3K-alpha (P27986 whole entry partner, species assumed): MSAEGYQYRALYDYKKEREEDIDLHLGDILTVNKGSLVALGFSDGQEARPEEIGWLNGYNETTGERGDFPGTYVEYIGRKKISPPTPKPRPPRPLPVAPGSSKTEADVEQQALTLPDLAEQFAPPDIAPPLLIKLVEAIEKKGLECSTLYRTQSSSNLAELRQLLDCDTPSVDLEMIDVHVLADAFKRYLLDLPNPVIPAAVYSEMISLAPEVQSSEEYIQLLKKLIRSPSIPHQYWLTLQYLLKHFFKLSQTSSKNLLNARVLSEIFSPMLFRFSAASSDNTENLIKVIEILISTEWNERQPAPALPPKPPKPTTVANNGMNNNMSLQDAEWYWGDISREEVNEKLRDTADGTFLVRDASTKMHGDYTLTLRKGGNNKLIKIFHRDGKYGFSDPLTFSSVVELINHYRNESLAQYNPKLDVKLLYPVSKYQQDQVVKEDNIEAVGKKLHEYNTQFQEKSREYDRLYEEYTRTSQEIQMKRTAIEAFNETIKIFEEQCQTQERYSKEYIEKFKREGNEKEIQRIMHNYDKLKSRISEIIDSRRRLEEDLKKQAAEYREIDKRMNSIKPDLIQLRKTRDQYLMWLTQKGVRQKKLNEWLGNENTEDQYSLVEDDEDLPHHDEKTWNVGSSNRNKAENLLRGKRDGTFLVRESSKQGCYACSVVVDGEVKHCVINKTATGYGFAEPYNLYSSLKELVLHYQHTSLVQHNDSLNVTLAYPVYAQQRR
Sequence of PI3K-gamma (P48736 whole entry, species assumed, the tested form may be a part): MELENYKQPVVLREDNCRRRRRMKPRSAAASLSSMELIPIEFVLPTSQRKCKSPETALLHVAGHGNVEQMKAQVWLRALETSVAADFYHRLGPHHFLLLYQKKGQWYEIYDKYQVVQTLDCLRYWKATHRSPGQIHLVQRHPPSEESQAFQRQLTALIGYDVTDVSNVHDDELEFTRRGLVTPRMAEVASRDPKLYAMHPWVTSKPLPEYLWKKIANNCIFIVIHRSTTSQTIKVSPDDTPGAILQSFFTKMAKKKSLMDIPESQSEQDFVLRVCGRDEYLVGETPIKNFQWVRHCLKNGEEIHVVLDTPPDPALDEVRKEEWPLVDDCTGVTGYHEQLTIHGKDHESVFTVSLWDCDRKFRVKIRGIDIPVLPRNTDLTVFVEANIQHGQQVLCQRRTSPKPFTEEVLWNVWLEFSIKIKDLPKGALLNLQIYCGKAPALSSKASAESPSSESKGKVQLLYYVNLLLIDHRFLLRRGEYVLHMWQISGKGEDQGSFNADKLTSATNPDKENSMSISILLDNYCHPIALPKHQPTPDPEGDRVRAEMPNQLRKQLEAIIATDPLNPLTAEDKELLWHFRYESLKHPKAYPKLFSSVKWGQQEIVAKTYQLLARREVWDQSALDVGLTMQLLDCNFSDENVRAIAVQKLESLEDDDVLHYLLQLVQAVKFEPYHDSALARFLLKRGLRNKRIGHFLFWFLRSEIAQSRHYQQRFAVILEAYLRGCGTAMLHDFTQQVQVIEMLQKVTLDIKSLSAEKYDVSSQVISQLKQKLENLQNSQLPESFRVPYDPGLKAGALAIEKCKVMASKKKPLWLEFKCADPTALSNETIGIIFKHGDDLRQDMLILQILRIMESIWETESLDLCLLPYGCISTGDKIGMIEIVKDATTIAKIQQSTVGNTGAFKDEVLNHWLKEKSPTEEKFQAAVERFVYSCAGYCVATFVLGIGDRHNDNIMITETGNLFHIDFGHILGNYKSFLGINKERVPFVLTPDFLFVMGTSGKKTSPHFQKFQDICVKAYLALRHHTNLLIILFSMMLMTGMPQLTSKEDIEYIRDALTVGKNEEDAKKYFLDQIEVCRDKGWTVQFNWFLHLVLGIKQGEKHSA
Sequence of PI3K-delta (O00329 whole entry, species assumed): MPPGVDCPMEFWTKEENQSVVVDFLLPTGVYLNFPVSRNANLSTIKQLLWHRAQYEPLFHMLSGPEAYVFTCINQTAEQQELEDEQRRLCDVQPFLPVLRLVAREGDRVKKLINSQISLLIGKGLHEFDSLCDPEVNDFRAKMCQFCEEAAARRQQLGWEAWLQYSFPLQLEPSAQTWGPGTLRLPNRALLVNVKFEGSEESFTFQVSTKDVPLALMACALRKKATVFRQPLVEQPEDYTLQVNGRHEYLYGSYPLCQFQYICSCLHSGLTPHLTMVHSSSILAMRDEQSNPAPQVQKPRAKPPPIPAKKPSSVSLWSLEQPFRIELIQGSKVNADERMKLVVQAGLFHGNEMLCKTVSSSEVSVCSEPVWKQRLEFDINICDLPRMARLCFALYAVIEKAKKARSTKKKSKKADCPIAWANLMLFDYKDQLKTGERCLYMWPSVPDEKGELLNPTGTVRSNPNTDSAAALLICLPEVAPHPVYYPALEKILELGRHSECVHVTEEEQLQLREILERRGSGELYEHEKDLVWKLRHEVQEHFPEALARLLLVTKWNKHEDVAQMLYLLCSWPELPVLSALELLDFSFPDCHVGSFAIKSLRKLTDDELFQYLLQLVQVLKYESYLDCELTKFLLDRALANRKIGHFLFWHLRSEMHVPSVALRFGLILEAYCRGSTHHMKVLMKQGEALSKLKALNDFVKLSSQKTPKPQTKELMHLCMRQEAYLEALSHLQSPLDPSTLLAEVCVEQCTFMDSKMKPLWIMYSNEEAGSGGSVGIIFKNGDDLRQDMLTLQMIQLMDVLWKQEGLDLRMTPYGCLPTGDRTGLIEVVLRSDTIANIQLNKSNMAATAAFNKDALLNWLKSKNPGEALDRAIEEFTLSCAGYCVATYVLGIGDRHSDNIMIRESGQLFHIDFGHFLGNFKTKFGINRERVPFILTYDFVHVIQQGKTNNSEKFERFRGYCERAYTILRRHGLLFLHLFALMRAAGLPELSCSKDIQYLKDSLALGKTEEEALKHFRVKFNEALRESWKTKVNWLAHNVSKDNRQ
Sequence of PI3K-delta (P27986 whole entry partner, species assumed): as the sequence (P27986 whole entry partner, species assumed) above
Sequence of PI3K-beta (P42338 whole entry, species assumed): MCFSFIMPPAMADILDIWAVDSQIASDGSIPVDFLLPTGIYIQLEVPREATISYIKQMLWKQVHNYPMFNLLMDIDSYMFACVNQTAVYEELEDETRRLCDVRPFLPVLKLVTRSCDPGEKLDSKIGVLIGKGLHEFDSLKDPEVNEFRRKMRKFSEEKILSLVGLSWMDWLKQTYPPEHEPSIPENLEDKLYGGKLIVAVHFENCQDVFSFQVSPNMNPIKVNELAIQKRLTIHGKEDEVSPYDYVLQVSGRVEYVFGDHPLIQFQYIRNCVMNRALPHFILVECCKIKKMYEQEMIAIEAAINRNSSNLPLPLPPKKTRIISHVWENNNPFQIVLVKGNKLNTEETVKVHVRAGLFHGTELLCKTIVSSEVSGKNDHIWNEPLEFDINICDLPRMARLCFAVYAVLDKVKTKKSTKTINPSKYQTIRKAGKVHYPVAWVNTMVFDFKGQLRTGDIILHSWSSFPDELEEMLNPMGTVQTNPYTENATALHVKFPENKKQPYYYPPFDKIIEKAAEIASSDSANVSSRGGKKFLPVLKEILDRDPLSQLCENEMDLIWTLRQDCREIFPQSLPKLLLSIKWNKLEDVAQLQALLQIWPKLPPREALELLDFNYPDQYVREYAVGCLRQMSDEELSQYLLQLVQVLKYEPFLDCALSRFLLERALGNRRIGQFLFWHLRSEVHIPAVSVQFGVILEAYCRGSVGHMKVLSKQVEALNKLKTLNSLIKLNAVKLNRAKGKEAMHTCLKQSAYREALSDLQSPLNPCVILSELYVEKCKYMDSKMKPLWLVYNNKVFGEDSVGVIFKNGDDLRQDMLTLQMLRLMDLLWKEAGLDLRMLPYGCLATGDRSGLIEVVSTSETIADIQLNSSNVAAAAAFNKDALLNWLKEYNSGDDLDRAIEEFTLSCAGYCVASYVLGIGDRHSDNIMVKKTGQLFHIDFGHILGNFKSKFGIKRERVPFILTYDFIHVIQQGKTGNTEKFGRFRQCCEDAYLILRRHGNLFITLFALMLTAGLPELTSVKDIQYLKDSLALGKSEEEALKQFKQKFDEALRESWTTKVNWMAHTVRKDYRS
Sequence of PI3K-beta (P27986 whole entry partner, species assumed): as the sequence (P27986 whole entry partner, species assumed) above

IC50 (PI3K-gamma) [nM]	IC50 (human TOR) [nM]	IC50 (PI3K-delta; read-out: PI3Kδ Avg. IC50) [nM]	IC50 (PI3K-beta) [nM]	IC50 (PI3K-alpha; read-out: PI3Kα Avg. IC50) [nM]	SMILES	IC50 (PI3K-alpha; PI3Kα Avg. IC50) [nM]	IC50 (PI3K-delta) [nM]
60.5	17.5	12.5	76.5	11.5	COc1ccc2c(c1)c(/C=C1\Oc3cc(O)cc(O)c3C1=O)c(C(=O)N(C)C)n2CCO [Example 348, 3-[(Z)-(4,6-Dihydroxy-3-oxo-1-benzofuran-2(3H)-ylidene)methyl]-1-(2-hydroxyethyl)-5-methoxy-N,N-dimethyl-1H-indole-2-carboxamide]		
36	13	2.5	17	8.6	COc1ccc2c(c1)c(/C=C1\Oc3cc(O)ccc3C1=O)c(C1CC1)n2CCn1cccn1 [Example 355, (2Z)-2-({2-Cyclopropyl-5-methoxy-1-[2-(1H-pyrazol-1-yl)ethyl]-1H-indol-3-yl}methylene)-6-hydroxy-1-benzofuran-3(2H)-one]		
588	1650	2	22	9	COc1ccc2c(c1)c(/C=C1\Oc3cc(O)ccc3C1=O)c(C(=O)N(C)C)n2CCN1CCN(C)CC1 [Example 335, 3-[(Z)-(6-Hydroxy-3-oxo-1-benzofuran-2(3H)-ylidene)methyl]-5-methoxy-N,N-dimethyl-1-[2-(4-methylpiperazin-1-yl)ethyl]-1H-indole-2-carboxamide]		
322	> 800	< 1	98.5	11	COc1ccc2c(c1)c(/C=C1\Oc3cc(O)ccc3C1=O)c(C)n2CCCN1CCCCC1 [Example 357, (2Z)-6-Hydroxy-2-{[5-methoxy-2-methyl-1-(3-piperidin-1-ylpropyl)-1H-indol-3-yl]methylene}-1-benzofuran-3(2H)-one]		
1340	1420	5	119	37	COc1ccc2c(c1)c(C=C1Oc3cc(O)cc(O)c3C1=O)cn2CCCCN(C)C [Example 116, 2-({1-[4-(dimethylamino)butyl]-5-methoxy-1H-indol-3-yl}methylene)-4,6-dihydroxy-1-benzofuran-3(2H)-one]		
99	5.25	0.9	5.9	4.4	COc1ccc2c(c1)c(/C=C1\Oc3cc(O)cc(O)c3C1=O)c(-c1c(C)noc1C)n2CCN1CCN(C)CC1 [Example 344, (2Z)-2-({2-(3,5-Dimethylisoxazol-4-yl)-5-methoxy-1-[2-(4-methylpiperazin-1-yl)ethyl]-1H-indol-3-yl}methylene)-4,6-dihydroxy-1-benzofuran-3(2H)-one]		
3	< 17	1.5	1	< 1.8	COc1ccc2[nH]c(-c3cnn(C)c3)c(/C=C3\Oc4cc(O)cc(O)c4C3=O)c2c1 [Example 330, (2Z)-4,6-Dihydroxy-2-{[5-methoxy-2-(1-methyl-1H-pyrazol-4-yl)-1H-indol-3-yl]methylene}-1-benzofuran-3(2H)-one]		
248	58.5	1	10.5	9.4	COc1ccc2c(c1)c(C=C1Oc3cc(O)cc(O)c3C1=O)c(C)n2CCCCN1CCN(CCO)CC1 [Example 98, 4,6-dihydroxy-2-[(1-{4-[4-(2-hydroxyethyl)piperazin-1-yl]butyl}-5-methoxy-2-methyl-1H-indol-3-yl)methylene]-1-benzofuran-3(2H)-one]		
292	> 160	2.5	71	12	COc1ccc2c(c1)c(/C=C1\Oc3cc(O)cc(O)c3C1=O)c(C(=O)N(C)C)n2CCCN(C)C [Example 343, 3-[(Z)-(4,6-Dihydroxy-3-oxo-1-benzofuran-2(3H)-ylidene)methyl]-1-[3-(dimethylamino)propyl]-5-methoxy-N,N-dimethyl-1H-indole-2-carboxamide]		
686	250	27	739	83.3	COc1ccc2c(c1)c(/C=C1\Oc3cc(O)cc(O)c3C1=O)cn2CC(=O)N(C)C [Example 318, 2-{3-[(Z)-(4,6-Dihydroxy-3-oxo-1-benzofuran-2(3H)-ylidene)methyl]-5-methoxy-1H-indol-1-yl}-N,N-dimethylacetamide]		
1060	9600	33.5	98	111	O=C1/C(=C/c2c(-c3ccc(Cl)cc3)[nH]c3ccccc23)Oc2c1ccc(O)c2O [Example 54, (2Z)-2-{[2-(4-chlorophenyl)-1H-indol-3-yl]methylene}-6,7-dihydroxy-1-benzofuran-3(2H)-one]		
150	540	9.5	88	58	COc1ccc2c(c1)c(/C=C1\Oc3cc(O)cc(O)c3C1=O)cn2CCN1CCC(O)C1 (stereo not drawn) [Example 326, (2Z)-4,6-Dihydroxy-2-({1-[2-(3-hydroxypyrrolidin-1-yl)ethyl]-5-methoxy-1H-indol-3-yl}methylene)-1-benzofuran-3(2H)-one]		
55	18	14.5	44	6.5	COc1ccc2[nH]c(-c3cncnc3)c(/C=C3\Oc4cc(O)cc(O)c4C3=O)c2c1 [Example 354, (2Z)-4,6-Dihydroxy-2-[(5-methoxy-2-pyrimidin-5-yl-1H-indol-3-yl)methylene]-1-benzofuran-3(2H)-one]		
73.7	< 21	3.5	52	9.7	COc1ccc2c(c1)c(C=C1Oc3cc(O)cc(O)c3C1=O)c(C)n2CCCCl [Example 88, 2-{[1-(3-chloropropyl)-5-methoxy-2-methyl-1H-indol-3-yl]methylene}-4,6-dihydroxy-1-benzofuran-3(2H)-one]		
8.5	39.5	20.3	93.7	5.5	COc1ccc2[nH]c(C(=O)O)c(/C=C3\Oc4cc(O)cc(O)c4C3=O)c2c1 [Example 339, 3-[(Z)-(4,6-Dihydroxy-3-oxo-1-benzofuran-2(3H)-ylidene)methyl]-5-methoxy-1H-indole-2-carboxylic acid]		

SMILES	IC50 (PI3K-gamma) [nM]	IC50 (human TOR) [nM]	IC50 (PI3K-delta; read-out: PI3Kδ Avg. IC50) [nM]	IC50 (PI3K-beta) [nM]	IC50 (PI3K-alpha; read-out: PI3Kα Avg. IC50) [nM]	IC50 (PI3K-alpha; PI3Kα Avg. IC50) [nM]	IC50 (PI3K-delta) [nM]
COc1ccc2[nH]cc(/C=C3\Oc4cc(O)cc(O)c4C3=O)c2c1 [Example 59, (2Z)-4,6-dihydroxy-2-[(5-methoxy-1H-indol-3-yl)methylene]-1-benzofuran-3(2H)-one]	269	265	70	173		30.2	
COc1ccc2[nH]c(-c3ccccc3)c(/C=C3\Oc4cc(O)ccc4C3=O)c2c1 [Example 310, (2Z)-6-Hydroxy-2-[(5-methoxy-2-phenyl-1H-indol-3-yl)methylene]-1-benzofuran-3(2H)-one]	13.5	92	0.9	11.5	< 2.1		
COc1ccc2c(c1)c(C=C1Oc3cc(O)cc(O)c3C1=O)c(C)n2CCN1CCOCC1 [Example 107, 4,6-dihydroxy-2-{[5-methoxy-2-methyl-1-(2-morpholin-4-ylethyl)-1H-indol-3-yl]methylene}-1-benzofuran-3(2H)-one]	154	< 25	5.8	112		11.3	
COc1ccc2c(c1)c(C=C1Oc3cc(O)cc(O)c3C1=O)cn2CCCN1CCN(CCO)CC1 [Example 113, 4,6-dihydroxy-2-[(1-{3-[4-(2-hydroxyethyl)piperazin-1-yl]propyl}-5-methoxy-1H-indol-3-yl)methylene]-1-benzofuran-3(2H)-one]	1360	1650	7	243		37	
COc1ccc2c(c1)c(C=C1Oc3cc(O)cc(O)c3C1=O)cn2C [Example 84, 4,6-dihydroxy-2-[(5-methoxy-1-methyl-1H-indol-3-yl)methylene]-1-benzofuran-3(2H)-one]	586	65.2		547		106	110
COc1ccc2c(c1)c(/C=C1\Oc3cc(O)cc(O)c3C1=O)c(C)n2CCCN(C)C [Example 305, (2Z)-2-({1-[3-(Dimethylamino)propyl]-5-methoxy-2-methyl-1H-indol-3-yl}methylene)-4,6-dihydroxy-1-benzofuran-3(2H)-one]	228	205		28.5		5	5
